From ChEMBL document CHEMBL1201862, “PubChem BioAssay data set” (2004)
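Growth conditions: 96-well plates. Treatment: test compound, 48 hours, 5 concentrations. Analysis: linear interpolation between bracketing concentrations; unreached endpoints set to highest concentration. The concentration for 50% growth inhibition is given as GI50.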 The source made the active and inactive calls. Rule as the data show it: active = GI50 up to about 1.1 µM and inactive = higher.

Assays:
Test in all cases: NCI-60 cell line screen, 48 h
[1] = tested on: KM12
[2] = tested on: EKVX
[3] = tested on: RPMI-8226
[4] = tested on: UO-31
[5] = tested on: A549
[6] = tested on: PC-3
[7] = tested on: SK-MEL-5
[8] = tested on: HCT-116
[9] = tested on: OVCAR-3
[10] = tested on: CCRF-CEM
[11] = tested on: HCC 2998
[12] = tested on: TK-10
[13] = tested on: SF-539
[14] = tested on: UACC-62
[15] = tested on: Hs-578T
[16] = tested on: MDA-N
[17] = tested on: U-251
[18] = tested on: MCF7
[19] = tested on: OVCAR-8
[20] = tested on: SNB-19

SMILES	GI50 [1]	GI50 [2]	GI50 [3]	GI50 [4]	GI50 [5]	GI50 [6]	GI50 [7]	GI50 [8]	GI50 [9]	GI50 [10]	GI50 [11]	GI50 [12]	GI50 [13]	GI50 [14]	GI50 [15]	GI50 [16]	GI50 [17]	GI50 [18]	GI50 [19]	GI50 [20]
Cc1cc(=O)n2nc(CSc3nnc(S)s3)sc2n1	> 100 µM (inactive)	> 100 µM (inactive)	> 100 µM (inactive)	> 100 µM (inactive)	> 100 µM (inactive)	> 100 µM (inactive)	> 100 µM (inactive)	> 100 µM (inactive)	> 100 µM (inactive)	> 100 µM (inactive)	> 100 µM (inactive)	> 100 µM (inactive)	> 100 µM (inactive)	> 100 µM (inactive)	> 100 µM (inactive)	> 100 µM (inactive)	> 100 µM (inactive)	> 100 µM (inactive)	> 100 µM (inactive)	> 100 µM (inactive)
NC(Cc1ccc(OCc2ccccc2)cc1)C(=O)NC(Cc1ccccc1)C(=O)Oc1c(Cl)c(Cl)c(Cl)c(Cl)c1Cl (stereo not given)	15.4 µM (inactive)	17.7 µM (inactive)	40.9 µM (inactive)	16.4 µM (inactive)	18.4 µM (inactive)	17.7 µM (inactive)	17.3 µM (inactive)	17.5 µM (inactive)	15.5 µM (inactive)	> 100 µM (inactive)	19.1 µM (inactive)	15.3 µM (inactive)	16.7 µM (inactive)	17 µM (inactive)	14 µM (inactive)	12.7 µM (inactive)	17.1 µM (inactive)	19 µM (inactive)	16.5 µM (inactive)	17.7 µM (inactive)
CNC(=O)CNC(=O)CCC(=O)N(C)C	> 100 µM (inactive)	> 100 µM (inactive)	> 100 µM (inactive)	> 100 µM (inactive)	> 100 µM (inactive)	> 100 µM (inactive)	> 100 µM (inactive)	> 100 µM (inactive)	> 100 µM (inactive)	> 100 µM (inactive)	> 100 µM (inactive)	> 100 µM (inactive)	> 100 µM (inactive)	> 100 µM (inactive)	> 100 µM (inactive)	> 100 µM (inactive)	> 100 µM (inactive)	> 100 µM (inactive)	> 100 µM (inactive)	> 100 µM (inactive)
CCCCC(=O)c1c(O)nc2sccn2c1=O	> 10 µM (inactive)	> 10 µM (inactive)	> 10 µM (inactive)	> 10 µM (inactive)	> 10 µM (inactive)	> 10 µM (inactive)	> 10 µM (inactive)	> 10 µM (inactive)	> 10 µM (inactive)	> 10 µM (inactive)	> 10 µM (inactive)	> 10 µM (inactive)	> 10 µM (inactive)	> 10 µM (inactive)	> 10 µM (inactive)	> 10 µM (inactive)	> 10 µM (inactive)	> 10 µM (inactive)	> 10 µM (inactive)	> 10 µM (inactive)
CC(C)(C)c1cc(O)ccc1O [E319]	> 100 µM (inactive)	> 100 µM (inactive)	38.2 µM (inactive)	> 58.6 µM (inactive)	> 100 µM (inactive)	1.57 µM (inactive)	> 100 µM (inactive)	> 57.9 µM (inactive)	43.6 µM (inactive)	4.92 µM (inactive)	> 10.5 µM (inactive)	8.32 µM (inactive)	> 100 µM (inactive)	> 100 µM (inactive)	> 24 µM (inactive)	> 100 µM (inactive)	0.675 µM (active)	> 100 µM (inactive)	> 63.7 µM (inactive)	> 100 µM (inactive)
